# Results taken from BindingDB's records for doi:10.3109/14756366.2013.765413 (Karunya University, 2014).
# Assays:
# [1] = target: T1, DNA topoisomerase I/type IB small subunit (Leishmania donovani, UniProt E9B7X3+E9BRC0); experiment: Preincubation Relaxation Assay; conditions: pH 7.5
# T1 sequence (E9B7X3 whole entry): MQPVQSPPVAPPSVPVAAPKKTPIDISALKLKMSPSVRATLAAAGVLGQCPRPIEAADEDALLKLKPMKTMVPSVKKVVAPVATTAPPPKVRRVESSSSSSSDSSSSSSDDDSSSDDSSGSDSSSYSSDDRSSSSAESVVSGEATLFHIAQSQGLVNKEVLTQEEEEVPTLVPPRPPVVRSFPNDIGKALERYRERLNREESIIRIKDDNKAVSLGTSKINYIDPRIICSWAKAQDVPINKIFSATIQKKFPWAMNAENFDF
# T1 sequence (E9BRC0 whole entry): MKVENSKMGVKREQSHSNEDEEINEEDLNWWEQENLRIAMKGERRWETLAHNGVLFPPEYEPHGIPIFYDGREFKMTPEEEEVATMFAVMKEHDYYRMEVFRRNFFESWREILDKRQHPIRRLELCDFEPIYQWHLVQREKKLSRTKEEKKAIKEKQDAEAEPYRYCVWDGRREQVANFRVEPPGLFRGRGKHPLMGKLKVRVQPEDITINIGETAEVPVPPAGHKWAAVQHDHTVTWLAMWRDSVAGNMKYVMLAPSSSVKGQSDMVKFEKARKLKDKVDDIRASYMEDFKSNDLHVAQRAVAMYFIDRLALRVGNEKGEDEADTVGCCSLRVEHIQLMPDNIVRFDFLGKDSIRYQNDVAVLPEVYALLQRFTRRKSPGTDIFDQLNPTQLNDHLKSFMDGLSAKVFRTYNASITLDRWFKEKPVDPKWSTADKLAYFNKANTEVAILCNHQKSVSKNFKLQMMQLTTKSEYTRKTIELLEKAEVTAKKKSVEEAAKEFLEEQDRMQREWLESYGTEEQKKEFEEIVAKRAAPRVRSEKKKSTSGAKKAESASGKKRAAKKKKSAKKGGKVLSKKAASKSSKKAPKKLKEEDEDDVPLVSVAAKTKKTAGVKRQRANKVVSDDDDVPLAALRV
# Method: In the preincubation assay, CPT concentrations were 50 and 100 μM, whereas various concentrations of compounds were 25, 50 and 100 μM. LdTOP1LS was preincubated with compounds 3a-d at different concentrations for 5 min at 37 °Cbefore the addition of substrate DNA. Relaxation assay was carried out as described previously with LdTOPILS serially diluted in the relaxation buffer (25mM Tris-HCl pH 7.5, 5% glycerol, 0.5mM DTT, 10mM MgCl2, 2.5mM EDTA and 150 mg/ml BSA) supercoiled pBluescript (SK ) DNA and 50mM KCl. The amount of supercoiled monomer DNA band fluorescence after ethidium bromide (EtBr) (0.5 mg/ml) staining was quantitated by using GEL Doc 2000 from Biorad (Hercules, CA, USA).
# [2] = target: T1, DNA topoisomerase I/type IB small subunit; experiment: Stimultaneous Relaxation Assay; conditions: pH 7.5
# Method: In simultaneous relaxation assay, CPT concentrations were 50 and 100 μM, whereas concentration of compounds were 50, 100 and 200 μM. Relaxation assay was carried out as described previously with LdTOPILS serially diluted in the relaxation buffer (25mM Tris-HCl pH 7.5, 5% glycerol, 0.5mM DTT, 10mM MgCl2, 2.5mM EDTA and […]) supercoiled pBluescript (SK ) DNA and 50mM KCl. The amount of supercoiled monomer DNA band fluorescence after ethidium bromide (EtBr) ([…]) staining was quantitated by using GEL Doc 2000 from Biorad (Hercules, CA, USA).
IC50 [1] [µM],IC50 [2] [µM],SMILES
16,51,"O=C1C(O)=C(C(C2=C(O)C(=O)c3ccccc3C2=O)c2ccccc2)C(=O)c2ccccc21 [Bi-lawsone analog, 3a]"
,37.5,"CN(C)c1ccc(C(C2=C(O)C(=O)c3ccccc3C2=O)C2=C(O)C(=O)c3ccccc3C2=O)cc1 [Bi-lawsone analog, 3b]"
14,,"COc1cc(C(C2=C(O)C(=O)c3ccccc3C2=O)C2=C(O)C(=O)c3ccccc3C2=O)ccc1O [Bi-lawsone analog, 3c]"
13,70,"O=C1C(O)=C(C(C2=C(O)C(=O)c3ccccc3C2=O)c2ccc(O)cc2)C(=O)c2ccccc21 [Bi-lawsone analog, 3d]"
